# Experimental data: patent US7384657B2, “Composition of natural herb extract for treating cardiovascular disease and its method of preparation thereof” (priority 2004, dated 2008)
# Entries after “also recorded” stand apart in the source; their conditions may differ. Where two headings read alike, the source gives them in different places.
# Columns and labels:
# [1] = dog model having myocardial infarction; format: in vivo
# From the text: (§1) The properties of Danshensu are studied.
# [2] = pituitary myocardial ischemia in rats, electrocardiac abnormality; format: in vivo
# From the text: as §1
# [3] = tested on: isolated pig's coronary artery; assay: isolated pig's coronary artery perfusion (modified Oglatree preparation)
# From the text: as §1
# Effect of Danshensu [β-(3,4)-dihydroxyphenyl lactic acid] upon the isolated pig's coronary artery is studied. […] The method, which is different from the method of Oglatree isolated coronary artery preparation, is to have both ends of the isolated pig's coronary artery segment ligated to the perfusion cannula.
# Test the same specimen by successively giving it 3 crescendo doses of morphine hydrochloride. Record the largest titer of P after each administration. Using Krbs-Henselait liquid to douche the perfusion system 3 times. When the basic line returns to normal, the effect is very obvious after the application of Danshensu (causing the medical concentration in the perfusion system turning into […]). Repeatedly administrate the same 3 crescendo doses of morphine hydrochloride successively like above. Observe the effect of Danshensu on the systole of coronary artery caused by morphine. Again, after the above-mentioned doses of Danshensu are applied, administrate repeatedly 4 crescendo doses of hydrochloric propanol. Observe the effect of Danshensu on the coronary artery systole caused by propanol. The sequence of administration resembles the above. In addition, after the application of Danshensu, repeat the administration by giving 3 crescendo doses of KCI and 3 crescendo doses of reserpine. […]
# [4] = internal distribution of Danshensu by HPLC after intravenous Danshen preparation; format: in vivo, domestic rabbit; details: after i.v. Danshen preparation
# Procedure: HPLC is used to study the domestic rabbit's internal distribution and content of the Chinese Danshen preparation's Danshensu. […] Adrenal tissue's average is 14.15 μg/g (+0.33), liver's tissue average 17.69 μg/g (+4.44), lung's tissue average 19.73 μg/g (+4.00), heart's tissue average 12.30 μg/g (+2.18), brain's tissue average 5.45 μg/g (+0.60) and spleen's tissue average 4.66 μg/g (+0.68).
# [5] = tested on: isolated heart; assay: isolated heart: coronary blood flow, fibrinolysis
# From the text: as §1
# [6] = toleration time in anoxic state in mice; format: in vivo
# From the text: as §1
# [7] = pharmacokinetics of Danshensu after auricular vein injection; format: in vivo, rabbits; details: 30 mg/kg i.v.
# Procedure: Pharmacokinetics of Danshenu in the biological body is studied. After the selected 5 rabbits' auricular veins are injected with Danshensu (injection of 30 mg/kg), blood is drawn regularly every 15, 30, 60, 90, 120 and 150 minutes. Obtain blood plasma and manipulate like before. Determine concentration of the blood medication. Use blank plasma for controlling. According to the mean from the experimental data, with the use of the logarithm and time of Danshensu concentration, create chart which is a straight line.
# [8] = solubility
# Procedure: Matrine is also called matricaria. Its molecular formula is C15H24N2O and its molecular weight is 248.36. It has four isomers: α, β, γ, and δ isomers. α-matrine is the one commonly seen. It is a needle or rhombohedral crystal, having a melting point 76° C. and [α]D+39.1° (H2O).
# Oxymatrine has a molecular formula C15H24N2O2 and a molecular weight 264.36. It is a colorless columnar crystal (Me2CO), melting point 162° C. (hydrate), 207° C. (anhydrate), [α]D+47.7° (C2H5OH). […] It can change to matrine through reaction with SO2.
# [9] = pharmacokinetics of oxymatrine and matrine in mice
# [10] = cited from earlier work
# [11] = 100 mg/kg i.v.
# Procedure: Study of pharmacokinetics of Matrine is carried out. […] Rats are given intravenous injection of oxymatrine 100 mg/kg.
# [12] = teratogenicity and mutagenicity in pregnant animals and male germ cells; format: in vivo, rats; details: 50 and 150 mg/kg
# Procedure: Select 50 pregnant rats. Observe and analyze 450 pregnant mice. Choose 50 and 150 mg/kg as puerarin dosage. […] The deformation of appearance, organ or bone is not found in all the examined fetal mice. It proves neither the puerarin nor the solvent has mutagenic activity on the pregnant mice.
# [13] = puerarin drops in patients of acute myocardial infarction; format: in vivo, human
# [14] = tested on: adenylate cyclase; assay: activation of dissolved adenylate cyclase; format: biochemical
# From the text: (§2) The effecter of β-receptor is the adenylate cyclase (AC). Excitant of the β-receptor can enable the AC to activate and the antagonist can cause it to inhibit. […] It points out puerarin is an antagonist of one type of β-receptors. It has the selective action on the heart's β-receptor. It can achieve various curative effects on the arrhythmia.
# [15] = tested on: β-receptor; assay: radioactive ligand analysis on myocardial membrane; format: binding, rats
# From the text: as §2
# [16] = excretion of oral puerarin in normal person; format: in vivo, human
# Procedure: (§3) Metabolism of medication of Puerarin is studied. 24 hours after the rats taken puerarin orally, 1.85% and 35.7% excreted as urine and stool. After the intravenous injection, 37.62%, 7.39% and 3.65% are secreted from the urine, stool and bile respectively. Absorption, by orally taking, is very little. 36 hours after puerarin is orally taken by normal person, only 0.78% […] secrete from the urine; 72 hours after the oral taking, 73.3% secrete from the stool.
# [17] = single intravenous injection 5 mg/kg; cited from earlier work
# [18] = tested on: artery's endothelial cell; assay: arterial endothelial cell culture; format: cell-based; details: puerarin 250 μg/ml, 6 hours, 36° C.
# Procedure: The effect of puerarin on the arterial endothelial cell is also examined. Puerarin has very outstanding effect on the artery's endothelial cell. Add puerarin (250 μg/ml) to the cellular fluid, but no addition of puerarin in the control group. After 6 hours of culture at 36° C., determine the content of carboxylic proline in both the internal and the external fluid of the endothelial cells respectively. […] The content of carboxylic proline, in the […], drops to Experiment Group's 2.70±0.06 μg/ml and 2.43±0.21 μg/ml from 3.35±0.05 μg/ml and 2.68±0.15 μg/ml in the Control group's internal and external endothelial cells. With regards to osamine polysaccharide, it drops to Experiment Group's 0.95±0.12 μg/ml and 0.68±0.15 μg/ml from 1.77±0.12 μg/m and 1.57±0.08 μg/ml in the internal fluid of Control group. […] It regulates the permeability of the water solubility and the substance of plasma molecule. Besides having an effect on the selective barrier action, its complex enzyme system can synthesize and secrete many active substances such as PGI2.
# [19] = tested on: polychromatic erythrocytes; assay: polychromatic erythrocytes micronucleus; format: in vivo; details: every dosage group
# [20] = absorption, distribution and excretion of puerarin in rats; format: in vivo
# From the text: The pharmacokinetics of puerarin is also studied. Absorption and distribution of medication of Puerarin are studied. […] External experiment proves puerarin's destruction in the enterogastric tract is very minor, but can be metabolized by the tissue of blood, liver, kidney and etc. It is also able to integrate with the liver, kidney, lung and plasma protein. Pharmacokinetics parameter of the rats's intravenous injection indicates puerarin's distribution in the body is vast and clears up fast. It is not easy to store.
# as §3
# [21] = tested on: TA97, TA98, TA100 and TA102; assay: Ames test; format: cell-based, typhoid Salmonella bacillus; details: 1, 5, 50, 500, 5000 μg per dish, S9 and non-S9
# Procedure: Use TA97, TA98, TA100 and TA102 as testing strain; puerarin 1, 5, 50, 500, and 5000 μg as dish. In the experiment of S9 and non-S9, its reverse colonial mutation setting figure is basically the same, that is, mutation rate (MR)<2. It has no dosage-response relation. […] Use human microblood nutrient for culturing. Add human blood to the puerarin injection. Under the condition of isolated body, add S9 activation system, then, culture for 53 hours. […] Therefore, hereditary toxicity has not been indicated.
# [22] = mice and dog; cited from earlier work
# [23] = puerarin: patient's blood 6-K-PGF1a, HDL, TXB2; format: in vivo, human; details: patients
# From the text: Puerarin can even heighten the patient's blood 6-K-PGF1a [6-acetone-PGF1a (prostaglandin-stable metabolism product)] and High Density Lipid (HDL) level. […] As a result, it enables the coronary artery and the peripheral blood vessel to expand, and therefore, it resists angina pectoris, reduces blood pressure, lowers myocardial oxygen consumption and improves the Ischemic ECG and etc.
# [24] = arrhythmia caused by chloroform and the adrenal gland; format: in vivo, domestic rabbit
# From the text: The effect of puerarin on the rhythm of heart is examined. […] Obviously, it also […] the mean of ventricular premature heartbeat and ventricular tachycardia caused by ouabin.
# [25] = puerarin in dog with acute myocardial ischemia / coronary blockage; format: in vivo
# Procedure: Effect of Puerarin upon the heart is studied. The main effect of Puerarin Pur is to change the myocardial ischemia. Apply intervenous injection of puerarin to the dog which contracts the acute myocardial ischemia. […] After the aortic pressure is adjusted to the level of pre-administration, tension-time index and the rising speed of left ventricular pressure also return to the level of pre-administration.
# 5 minutes after the midpoint of the anterior branch of the dog's coronary artery encountering acute blockage, intravenous injection of puerarin 20 mg/kg is administrated. […] The function lasts 3˜4 hours. It has no effect on LVSD. 15 minutes after the administration, the ST drops obviously. […] Electrocardiographic index reduces clearly and the pulmonary incarceration has not risen.
# [26] = within 24 hours of intramuscular oxymatrine 100 mg/kg
compound,measurement,setting,value
"O=C(O)[C@H](O)Cc1ccc(O)c(O)c1 [Danshensu, D(+) β-(3,4-dihydroxyphenyl) lactic acid]",area suffered from myocardial infarction,[1],the area suffered from myocardial infarction is reduced
same,heart function,[1],the heart function is improved
same,electrocardiac abnormality of pituitary myocardial ischemia,[2],restore the electrocardiac abnormality
same,P,"[3]; Danshensu 1×10^6 g/ml in perfusion system, 31 strips, 40 experiments",-2.54±0.48 mmHg
same,dilatation of coronary artery smooth muscle,[3]; isolated pig coronary artery,dilate the smooth muscle of coronary artery; also recorded: obvious dilatation effect
same,"Danshensu content, adrenal tissue average",[4],14.15 µg/g
same,"Danshensu content, brain tissue average",[4],5.45 µg/g
same,"Danshensu content, heart tissue average",[4],12.30 µg/g
same,"Danshensu content, liver tissue average",[4],17.69 µg/g
same,"Danshensu content, lung tissue average",[4],19.73 µg/g
same,"Danshensu content, spleen tissue average",[4],4.66 µg/g
same,fibrinolysis,[5],relatively weaker function in fibrinolysis
same,blood flow of coronary artery,[5]; isolated heart,increasing the blood flow of coronary artery
same,toleration time in anoxic state,[6],prolong the toleration time in anoxic state
same,pharmacokinetic model,[7],single ventricular model
same,half-life,"[7]; rabbit, in vivo, iv, 5 rabbits, read-out: biological half-life t1/2",16.6 min
O=C1CCC[C@@H]2[C@H]3CCC[N+]4([O-])CCC[C@@H](CN12)[C@@H]34 (stereo partly shown) [Oxymatrine],solubility,[8],"soluble in water, chloroform and ethanol, but nearly insoluble in ether, methyl ether and petroleum ether"
same,transformation in the gastrointestinal tract,[9]; stomach perfusion,gradually transforms into matrine in the gastrointestinal tract
same,excretion of oxymatrine,[9]; [26],5.1%
same,matrine found in the emiction of urine,[9]; [26],20.6%
same,LD50,[10]; intramuscular injection,256.74 ± 573.6 mg/kg
same,LD50,[10]; intravenous injection,144.2 ± 22.8 mg/kg
same,distribution and elimination,[11],distribution is wide and the elimination fast
Puerarin,"deformation of appearance, organ or bone of fetal mice",[12],not found
same,"survival fetal number, absorption fetal number, weight, length, tail length versus control",[12],no obvious difference
same,myocardial index,"[13]; 30 minutes and 2 hours after (p<0.01, P=0.05)",clearly reduces
same,genesis rate of infarction expansion,"[13]; human, in vivo",obviously lowers
same,adrenal gland's activation of dissolved adenylate cyclase,[14],completely inhibit
same,competition with the labeled ligand,[15]; conjugated competition,able to compete with the labeled ligand
same,maximum combination capacity of the β-receptor,[15]; rats's myocardial membrane,clearly reduce the maximum combination capacity
same,secreted from the urine,[16]; 36 hours,0.78%
same,secreted from the stool,[16]; 72 hours,73.3%
same,pharmacokinetic model,[17],2-ventricle open model
same,"carboxylic proline, external fluid of endothelial cells",[18],2.43 ± 0.21 µg/mL
same,"carboxylic proline, internal fluid of endothelial cells",[18],2.70 ± 0.06 µg/mL
same,"osamine polysaccharide, first value (internal fluid)",[18],0.95 ± 0.12 µg/mL
same,"osamine polysaccharide, second value",[18],0.68 ± 0.15 µg/mL
same,occurrence rate of polychromatic erythrocytes micronucleus versus negative contrast,[19],no obvious difference
same,secreted from the bile,[20]; intravenous injection,3.65%
same,secreted from the stool,[20]; intravenous injection,7.39%
same,secreted from the urine,[20]; intravenous injection,37.62%
same,tissue content,[20]; intravenous injection,"the content in kidney is highest, blood plasma takes second place and the brain has lesser"
same,oral absorption,[20]; oral,absorbed faster but not complete
same,excreted as stool,"[20]; oral, 24 hours",35.7%
same,excreted as urine,"[20]; oral, 24 hours",1.85%
same,medication volume retrieved from gastrointestinal substance and stool,"[20]; oral, after 24 hours",37.3 % of the volume administrated
same,mutation rate (MR),[21],< 2
same,pharmacokinetic model,[22],3-ventricle open model
same,blood 6-K-PGF1a and High Density Lipid (HDL) level,[23],heighten
same,ratio of TXB2/6-K-PGF1a,[23],reduces the ratio
same,arrhythmic time,[24],shorten the arrhythmic time
same,lowering of LVSD,"[25]; 20 mg/kg i.v., 5 minutes after blockage",10.14%
same,myocardial infarction scope (N-BT),"[25]; 20 mg/kg i.v., 6 hours later",reduces significantly
same,aortic pressure,[25]; intravenous injection,lower the aortic pressure
same,release of myocardial CPK,[25]; ischemia and reperfusion,lowers the release of myocardial CPK
